Assay [1] relates to mouse bone marrow derived dendritic cells (BMDCs). Kind of assay: Cytokine secretion of BMDCs activated with supernatants of treated PC3 cells (ELISA). The following applies: for IL-12 secretion from BMDCs: BMDCs 24 h. It counts as cell-based. From the text:
Cancer cells recruit several pathways to evade elimination by the immune system (Kim et al., Immunology 121:1-14, 2007). Several mechanisms by which tumor cells escape immunity include upregulation of inhibitory molecules, production of immunosuppressive cytokines, and downregulation of costimulatory molecules (Rabinovich et al., Annu. Rev. Immunol. 25:267-296, 2007). Dendritic cells (DCs), the major players for the initiation of a specific anti-tumor T-cell response, are potential target to tumor-mediated immunosuppression. (Gabrilovich et al., Nat. Med. 2:1096-1103, 1996; Radmayr et al., Int. J. Cancer 63:627-632, 1995; Orsini et al., Cancer Res. 63:4497-4506, 2003.) Lactic acid secretion in highly proliferative glycolytic tumor has the ability to induce alteration in antigen phenotype and functional activity of DCs, which contributes to the suppression of local immunity (Gottfried et al. 2006). Tumor derived lactic acid inhibit the differentiation of monocytes to DCs, impair DC activation and antigen expression and suppress the proliferation, cytokine production and cytotoxic activity of T cells (Fischer et al., Blood 109:3812-3819, 2007). After observing significant and very selective reduction in lactate levels in PCa cells by MITO-DCA, the impact of the reduced lactate producing PC3 cell supernatants on DCs was investigated. Cancer cell supernatants were generated by treating PC3 cells with MITO-DCA (50 μM), Na-DCA (150 μM), and TPP-DCA (150 μM) for 24 h. First, investigated was the immune responses from the PC3 supernatants upon treatment with different DCA compounds by determining pro-inflammatory and anti-inflammatory cytokines interleukin (IL)-2, IL-4, IL-6, IL-10, IL-12, tumor necrosis factor (TNF)-α, and interferon-gamma (IFN-γ) using enzyme-linked immunosorbent assay (ELISA) (FIG. 6A) (Marrache et al., Integr. Biol. 5:215-223, 2013). […] The levels of all these three cytokines were higher for MITO-DCA treated cells compared to those, which were treated with TPP-DCA or Na-DCA. When DCs are activated appropriately, they take up tumor antigens and apoptotic bodies, migrate to the T-cell-rich area of the lymph nodes, initiate a series of actions for the selection of antigen-specific T cells, and the release of the DC cytokines such as IFN-γ and IL-12. The PC3 supernatants containing the tumor antigens were added to mouse bone marrow derived dendritic cells (BMDCs) and incubated at 37° C. (Marrache et al., 2013). […]
BMDCs were isolated from 6-8 weeks old C57BL/6 mice. […] The cells were counted, resuspended and transferred to petri dishes at the final concentration of 1.5×10^6 cells/mL. […] DC purity was tested by incubating BMDCs with LPS (100 ng/mL) and measured the surface expression of CD11c. […]
In general terms: ELISA stands for enzyme-linked immunosorbent assay.

A further assay relates to PC3 cells. As to the kind of experiment: JC-1 assay of mitochondrial membrane potential (Δψm), live cell imaging. It counts as cell-based, Human. The following applies: for JC-1 Green:Red fluorescence ratio: 6 h. From the text: An early indication of the initiation of cellular apoptosis is the collapse in the electrochemical gradient across the mitochondrial membrane, as measured by the change in the Δψm (Perry et al., BioTechniques 50:98-115, 2011). […] The potential-sensitive color shift is due to the concentration dependent formation of red fluorescent “J aggregates.” Mitochondrial depolarization is indicated by an increase in the green/red fluorescence intensity ratio. Live cell imaging of prostate cancer (PCa) PC3 cells treated with Na-DCA (150 μM), TPP-DCA (150 μM), or MITO-DCA (50 μM), followed by staining with JC-1, and a comparative analysis of the JC-1 green/red fluorescence ratio from PC3 cells in response to these three DCA analogues are represented in FIG. 3. […] Quantification of fluorescence intensities was carried out using ImageJ and the corrected total cell fluorescence (CTCF) values are represented as histograms (FIG. 3).
PC3 cells were cultured on a live cell imaging glass bottom dish at a density of 1×10^6 cells/mL and allowed to grow overnight at 37° C. Cells were treated with 150 μM Na-DCA, 150 μM TPP-DCA, and 50 μM MITO-DCA for 6 h at 37° C. A solution of JC-1 reagent (10 μg/mL in RPMI) was added and incubation was carried out at 37° C. for 20 min. The cells were washed 3 times with PBS, and live cell imaging was performed in phenol red free RPMI media.

[2] abbreviates: supernatant of PC3 cells treated with 50 μM for 24 h.

This note sets out measurements from patent US10004809B2, “Precise delivery of therapeutic agents to cell mitochondria for anti-cancer therapy” (UNIVERSITY OF GEORGIA RESEARCH FOUNDATION, INC., priority 2013, dated 2018).

For `O=C(CCCCC[P+](c1ccccc1)(c1ccccc1)c1ccccc1)NC(COC(=O)C(Cl)Cl)(COC(=O)C(Cl)Cl)COC(=O)C(Cl)Cl.[Br-]` [MITO-DCA], in assay [1] (setting [2]), the “IL-10 production from BMDCs” value is recorded as “reducing IL-10 production”, the “TNF-α secretion from BMDCs” value is listed as “highest level” and the “IL-12 secretion from BMDCs” value is on record as “significant increased secretion of IL-12”. In addition, in the assay with PC3 cells (50 μM), the “Change in Δψm (JC-1 imaging)” value is “induced marked changes in Δψm” and the “JC-1 Green:Red fluorescence ratio” value amounted to 3.96±0.96.

For the compound `O=C(OCCC[P+](c1ccccc1)(c1ccccc1)c1ccccc1)C(Cl)Cl.[Br-]` [TPP-DCA], in assay [1] (supernatant of PC3 cells treated with 150 μM for 24 h), the “IL-12 secretion from BMDCs” value is given as “lesser compared to MITO-DCA”. In the assay on PC3 cells (150 μM), the “Change in Δψm (JC-1 imaging)” value was “showed red fluorescence in most cells” and the “JC-1 Green:Red fluorescence ratio” value was determined as 0.49±0.09.
